Assay results published in patent publication EP4640238A1, “THERAPEUTIC AGENT FOR PULMONARY DISEASE, HEPATIC DISEASE OR RENAL DISEASE, WHICH CONTAINS PGAM-CHK1 BINDING INHIBITOR” (Kyoto University, priority 2022, dated 2024).

Legend:
PGAM-Chk1 binding = PGAM-Chk1 binding inhibition HTP screening using a Cell-base NanoBiT system (primary screening); type: cell-based
From the text: Examples of a preferred method for measuring the binding level between PGAM and Chk1 include, in addition to the above, a method that uses PGAM and Chk1 labeled with tags that can bind to each other, and specific examples thereof include the following method that uses a Nanobit system. In Nanobit, a large subunit and a small subunit of a photoprotein prepared based on a luciferase are attached as tags to PGAM and Chk1, respectively. These tags have structures that can bind to each other. […] By measuring the intensity of the luminescence signal at this time, the binding level can be measured with high sensitivity and high quantitativity.
PGAM-Chk1 binding inhibition HTP (high-throughput) screening using a Cell-base NanoBiT system was carried out. Specifically, the screening was carried out by the following method. In NanoBiT, a large subunit and a small subunit of a photoprotein prepared based on a luciferase are attached as tags to PGAM and Chk1, respectively. These tags have structures that can bind to each other. […] By measuring the intensity of the luminescence signal at this time, the binding level can be measured with high sensitivity and high quantitativity. […] Therefore, a substance that inhibits the binding of PGAM and Chk1 was searched from the drug library, with the decrease in the luminescence signal as an indicator. […]

[1] = test system: fibrosis-related genes (Col1a2, Col5a2, Fibronectin, and Toropelastin); test: Expression of fibrosis-related mRNA in lung tissue of BLM pulmonary fibrosis model mice (real-time PCR); type: in vivo, ICR mice; settings: lung tissue 21 days after 2.5 mg/kg bleomycin; 14, 20, and 24 mg/kg intraperitoneally 4 times a week for 2 weeks; versus solvent
Description: 2.5 mg/kg of bleomycin was intratracheally administered to 10- to 12-week old ICR mice. Starting 8 days after bleomycin administration, 14, 20, and 24 mg/kg of nutlin 3b or the solvent alone were intraperitoneally administered 4 times a week for 2 weeks. 21 days after bleomycin administration, mice in the nutlin 3b administration group or solvent administration group were sacrificed to sample their lung tissue. In the test, 3 mice in the nutlin 3b non-administration group (solvent only) and 3 mice in the nutlin 3b administration group were used. The same applies to the following tests. The collected lung tissue was immersed in a sufficient amount of RNAlater and stored at 4°C overnight. The next day, the lung tissue was removed from the RNAlater, and the total RNA was collected using TRIzole. Then, mRNA was reverse-transcribed using a ReverTra Ace qPCR RT kit to prepare cDNA. Real-time PCR was performed on the prepared cDNA using primers specific to fibrosis-related genes (Col1a2, Col5a2, Fibronectin, and Toropelastin).

aged mice [2] = test: Effect on the kidneys of aged mice (HE staining, hyalinization, marker expression); type: in vivo, C57BL/6J; settings: 20-month-old aged mice, once a week for 3 months, versus Vehicle
Description: (§1) Nutlin 3b was administered to C57BL/6J, 20-month-old aged mice once a week for 3 months. After 3 months, the mice were sacrificed, and HE staining and mRNA expression analysis of the renal tissue were performed. As a comparison subject, the renal tissue of young mice (C57BL/6J, 10-week old) and aged mice with no administration of nutlin 3b (Vehicle) were used.
Also, the increase in senescence markers and SASP markers induced in aged renal tissue was suppressed by nutlin 3b administration (Fig. 20-3).

[3] = test system: BLM pulmonary fibrosis model mice; test: Pathological comparison: Masson's trichrome staining of lung tissue, quantification of fibrosis regions; type: in vivo, ICR mice; settings: blue area quantified, 14, 20, and 24 mg/kg intraperitoneally 4 times a week for 2 weeks, day 21 after bleomycin
Description: 2.5 mg/kg of bleomycin was intratracheally administered to 10- to 12-week old ICR mice. Starting 8 days after bleomycin administration, 14, 20, and 24 mg/kg of nutlin 3b or the solvent alone were intraperitoneally administered 4 times a week for 2 weeks. 21 days after bleomycin administration, mice in the nutlin 3b administration group or solvent administration group were sacrificed to sample their lung tissue. The lung tissue was fixed by treatment with 4% paraformaldehyde for 48 hours. The fixed lung tissue was embedded in paraffin, and then sliced into 5 µm thin slices, and set on microscope slides. Masson's trichrome staining was performed on the thin slices of the lung tissue to evaluate fibrosis. Specifically, in Masson's trichrome staining, nuclei are stained black-brown with iron hematoxylin staining, cytoplasm is stained red with […], and collagen fibers are stained blue with aniline blue. Accordingly, to evaluate fibrosis, the stained image was separated into the three primary colors using ImageJ (image analysis software), and the area which stained blue was quantified as the fibrosis regions. The obtained signals of each group were expressed as relative values to the control group (PBS + PEG). The results of Masson's trichrome staining are shown in Fig. 17-1, and the quantification results of the fibrosis regions are shown in Fig. 17-2.

[4] = test system: FoxM1 and its downstream target genes (Plk1, Ccnb2, Aspm, and Cep55); test: Expression of FoxM1 and its downstream target genes in lung tissue of BLM pulmonary fibrosis model mice (real-time PCR); type: in vivo, ICR mice; settings: lung tissue 21 days after 2.5 mg/kg bleomycin; 20 mg/kg intraperitoneally 4 times a week for 2 weeks; versus solvent
Description: The influence of the nutlin 3b administration to FoxM1 target factors in bleomycin-induced pulmonary fibrosis was examined. Specifically, 2.5 mg/kg of bleomycin was intratracheally administered to 10- to 12-week old ICR mice. Starting 8 days after bleomycin administration, 20 mg/kg of nutlin 3b or the solvent alone was intraperitoneally administered 4 times a week for 2 weeks. 21 days after bleomycin administration, mice in the nutlin 3b administration group and the solvent administration group were sacrificed to sample their lung tissue. In the test, 3 mice in the nutlin 3b non-administration group (solvent only) and 3 mice in the nutlin 3b administration group were used. The collected lung tissue was immersed in a sufficient amount of RNAlater and stored at 4°C overnight. The next day, the lung tissue was removed from the RNAlater, and the total RNA was collected using TRIzole. Then, mRNA was reverse-transcribed using a ReverTra Ace qPCR RT kit to prepare cDNA. Real-time PCR was performed on the prepared cDNA using primers specific to FoxM1 and its downstream target genes (Plk1, Ccnb2, Aspm, and Cep55).

aged mice [5] = test: Effect on the lungs of aged mice (HE staining and p21 antibody staining); type: in vivo, C57BL/6J; settings: 20-month-old aged mice, once a week for 3 months; versus Vehicle
Description: as §1, with “lung” for “renal”

[6] = test system: BLM pulmonary fibrosis model mice; test: Survival rate in BLM pulmonary fibrosis model mice; type: in vivo, C57BL6 mice; settings: 2.5 mg/kg bleomycin intratracheally; 20 mg/kg nutlin 3b intraperitoneally 4 times a week for 2 weeks from day 8; deaths within 21 days; versus solvent only
Description: 2.5 mg/kg of bleomycin was intratracheally administered to 10- to 12-week old C57BL6 mice. Starting 8 days after bleomycin administration, 20 mg/kg of nutlin 3b or the solvent alone was intraperitoneally administered 4 times a week for 2 weeks. The mice were checked for survival every day, and the number of mice that died within 21 days after bleomycin administration was counted. In this test, 6 mice in the nutlin 3b non-administration group (solvent only) and 7 mice in the nutlin 3b administration group were used. […] In the figure, 3B indicates nutlin 3b. The same applies to the following figures.

Compound: nutlin
- luminescence signal (binding level between PGAM and Chk1) (PGAM-Chk1 binding): luminescence signal decreases

Compound: COc1ccc(C2=N[C@H](c3ccc(Cl)cc3)[C@H](c3ccc(Cl)cc3)N2C(=O)N2CCNC(=O)C2)c(OC(C)C)c1 [nutlin 3b, Nutlin-3b]
- expression of the fibrosis-related genes [1]: decreased
- increase in senescence markers and SASP markers induced in aged renal tissue (aged mice [2]): suppressed
- glomerular hyalinization (four-level score) (aged mice [2]; HE staining of renal tissue): significant improvement in hyalinization
- interstitial hyalinization positive rate (aged mice [2]; HE staining of renal tissue): significant improvement in hyalinization
- fibrosis areas induced by bleomycin in the lungs [3]: smaller than those of the control group
- expression of FoxM1 target genes [4]: suppression of the expression of FoxM1 target genes was observed
- p21-positive cells in aged lung tissue (aged mice [5]): significantly suppressed
- survival rate [6]: improved the survival rate
